From patent US8937091B2 (Japan Science and Technology Agency, priority 2009, dated 2015)

Experiments:
[1] = test system: SOCE (store operated calcium entry) in CHO cells; test: Assay of SOCE (store operated calcium entry)-inhibiting action; format: cell-based, Chinese hamster; settings: CHO cells, thapsigargin; for inhibition at 10 µM / inhibition at 30 µM / inhibition at 100 µM: Cricetulus griseus, CHO, read-out: SOCE level (percentage of inhibition)
In short: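 CHO cells in calcium-free BSS received compound, then 1 μM thapsigargin 2 min later to deplete stores; after 9 min, 2 mM calcium chloride (final) added. Percent inhibition of the rise in intracellular calcium determined at various compound concentrations.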

[2] = test system: IICR (IP3 induced calcium release) in CHO cells; test: Assay of IICR (IP3 induced calcium release)-inhibiting action; format: cell-based, Chinese hamster; settings: CHO cells, 10 μM ATP; for inhibition at 10 µM / inhibition at 30 µM / inhibition at 100 µM: Cricetulus griseus, CHO, read-out: IICR level (percentage of inhibition); for inhibition at 30 µM: test compound 30 μmol; for inhibition at 100 µM: test compound 100 μmol
In short: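 CHO cell medium replaced with calcium-containing BSS; compound added 1 min later, then 10 μM ATP after a further 2 min. Percent inhibition of the ATP-evoked rise in intracellular calcium determined at each compound concentration.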

Row | Compound | inhibition at 10 µM ([1]; test compound 10 μmol) [%] | inhibition at 30 µM ([1]; test compound 30 μmol) [%] | inhibition at 100 µM ([1]; test compound 100 μmol) [%] | inhibition at 10 µM ([2]; test compound 10 μmol) [%] | inhibition at 30 µM [2] [%] | inhibition at 100 µM [2] [%] | SOCE level (percentage of inhibition) ([1]; test compound 10 μmol) [%] | SOCE level (percentage of inhibition) ([1]; test compound 30 μmol) [%] | SOCE level (percentage of inhibition) ([1]; test compound 100 μmol) [%] | IICR level (percentage of inhibition) ([2]; test compound 10 μmol) [%]
1 | Cc1ccc(C(=O)CCN(C)CCO)o1 [Example 140, 2-(N-methylhydroxyethyl)aminoethyl-5-methyl-2-furylketone] | 0 | 0 | 0 | 20 | 20 | 30 |  |  |  | 
2 | CC(C)N(CCO)CCC(=O)c1cc2ccccc2s1 [Example 284, 2-(N-isopropyl-2-hydroxyethyl)aminoethyl-2-benzothienylketone] |  | 0 | 0 | 0 | 0 | 40 |  |  |  | 
3 | Cc1ccc(C(=O)CCNCc2ccccc2)o1 [Example 152, 2-(N-benzyl)aminoethyl-5-methyl-2-furylketone] | 0 | 10 | 30 | 20 | 10 | 30 |  |  |  | 
4 | Cc1ccc(C(=O)CCN(Cc2ccccc2)C(C)(C)C)cc1 [Example 303, 4-tolyl(N-benzyl-N-t-butyl)aminoethylketone] | 0 | 0 | 0 | 20 | 20 | 40 |  |  |  | 
5 | CC(C)N(CCCC(=O)c1ccccc1)Cc1ccccc1 [Example 179, 3-(N-isopropylbenzyl)aminopropylphenylketone] | 0 | 0 | 0 | 0 | 0 | 0 |  |  |  | 
6 | CC(C)N(CCC(=O)c1ccc(Cc2ccccc2)cc1)Cc1ccccc1 [Example 64, 2-(N-isopropylbenzyl)aminoethyl-4-benzylphenylketone] |  |  |  |  | 70 | 96 | 0 | 0 | 30 | 50
7 | CC(C)N(CCO)CCC(=O)c1ccc(F)cc1 [Example 166, 2-(N-hydroxyethylisopropyl)aminoethyl-4-fluorophenylketone] | 0 | 0 | 20 | 0 | 0 | 0 |  |  |  | 
8 | O=C(CCN(c1ccccc1)c1ccccc1)c1ccccn1 [Example 185, 2-(N,N-diphenyl)aminoethyl-2-pyridylketone] | 0 | 10 | 20 | 0 | 10 | 20 |  |  |  | 
9 | O=C(CCN(CCO)Cc1ccccc1)c1cccs1 [Example 245, 2-(N-benzyl-2-hydroxyethyl)aminoethyl-2-thiophenylketone] | 0 | 0 | 0 | 0 | 0 | 0 |  |  |  | 
10 | CN(CCC(=O)c1ccsc1)Cc1ccccc1 [Example 236, 2-(N-benzylmethyl)aminoethyl-3-thiophenylketone] | 0 | 0 | 20 | 10 | 10 | 80 |  |  |  | 
11 | CC(C)(C)N(CCC(=O)c1ncccc1Br)Cc1ccccc1 [Example 408, 2-(N-t-butyl-N-benzyl)aminoethyl-3-bromo-2-pyridylketone] | 20 | 40 | 50 | 76 | 83 | 77 |  |  |  | 
12 | Cc1nc(C)c(C(=O)CCN(Cc2ccccc2)C(C)C)s1 [Example 219, 2-(N-benzylisopropyl)aminoethyl-5-(2,4-dimethylthiazolyl)ketone] | 0 | 0 | 0 | 20 | 90 | 100 |  |  |  | 
13 | COC(=O)C(CCC(=O)c1ccc2ccccc2c1)C(C)=O (centres unmarked) [Example 97, 3-acetyl-3-methoxycarbonylpropyl-2-naphthylketone] | 0 | 10 | 90 | 0 | 10 | 70 |  |  |  | 
14 | CC(C)N(CCO)CCC(=O)c1cnccn1 [Example 151, 2-(N-isopropylhydroxyethyl)aminoethyl-2-pyrazylketone] | 0 | 0 | 0 | 20 | 20 | 50 |  |  |  | 
